Data reported in patent publication US4618678A, “4-(2,3-dichloro-6-fluorophenyl)-1,4,5,6,7,8-hexahyd ro-2-methyl-5-oxo-1,7-naphthyridine-3-carboxylic acid 2-(2,3-dichlorophenoxy)ethyl ester” (American Home Products Corporation, priority 1985, dated 1986).

Legend:
[1] = system: spontaneously hypertensive rats; experiment: Hypotensive effect on systolic blood pressure of spontaneously hypertensive rats; type: in vivo, rat; details: SHR, oral, 10 mg/kg, at 1.5 hours
[2] = system: arterial actin-myosin interactions; experiment: Inhibition of superprecipitation (antagonism of arterial actin-myosin interaction); type: biochemical; details: for Antag. of Actin-Myosin (percent inhibition of superprecipitation): six minute time-point; for antagonism of arterial actin-myosin interactions (in words): 'unlike' = does not antagonize as the compounds of the invention do
Description: (§1) The data reported herein was obtained at a six minute time-point rather than the 1.5, 5 and 12 minute time points indicated in the superprecipitation assay of the Silver et al. paper.
(§2) The following examples illustrate the preparation of a representative number of compounds of this invention. After each example, the Ca^+2 antagonist activity of the compound is presented in terms of percent relaxation of aortic tissue (P.R.) at 10^-5 M concentration. […] Inhibition of superprecipitation (Antag. of Actin-Myosin interaction) is expressed as percent inhibition (mean±standard error of the mean for at least 3 separate experiments) at a compound concentration. In the same manner, inhibition of myosin light chain phosphorylation (Antag. of MLCP) is expressed as a percent inhibition at a compound concentration. Similarly, the antihypertensive activity is reported in terms of millimeters mercury (mmHg) systolic blood pressure (B.P.) reduction at the stated time post 50 mg/kg oral dosing or other dosing as indicated.

[3] = system: Ca^+2 -calmodulin dependent myosin light chain phosphorylation; experiment: Inhibition of Ca+2-calmodulin dependent myosin light chain phosphorylation (MLCP); type: biochemical; details: 'unlike' = does not antagonize as the compounds of the invention do
Description: as §1, §2

[4] = system: isolated paced intact rabbit atria; experiment: Cardiac depressant (negative inotropic) effect in isolated paced intact rabbit atria; type: cell-based; details: 3 Hz, 30° C.
Description: The potential for detrimental cardiac depressant (negative inotropic) effects of the compounds of this invention was assessed in isolated paced intact rabbit atria. Left and right atria (with nodal tissue excised) were suspended vertically in a jacketed (30° C.) organ bath containing 50 ml of PSS and aerated with 95% O2 /5% CO2. Muscles (N=5-9/compound) were stimulated at a frequency of 3 Hz with a WPI stimulator for a 60 minute equilibration period. Changes in isometric force were recorded as described for the aoritc smooth muscle experiments,supra. Following equilibration, the test compound (or as a control, the ethanol vehicle) was added to the organ bath in a cumulative manner from doses ranging from 10^-9 M to 10^-5 M (10^-5 M was the maximum dose which could be attained due to the depressant effect of ethanol) and effects on developed isometric force were determined. […]
The following examples illustrate the preparation of a representative number of compounds of this invention. […] Inhibition of superprecipitation (Antag. of Actin-Myosin interaction) is expressed as percent inhibition (mean±standard error of the mean for at least 3 separate experiments) at a compound concentration. In the same manner, inhibition of myosin light chain phosphorylation (Antag. of MLCP) is expressed as a percent inhibition at a compound concentration. […]

Row | SMILES | B.P. (systolic blood pressure reduction) [1] | Antag. of Actin-Myosin (percent inhibition of superprecipitation) ([2]; 100 μM) | antagonism of Ca^+2 -calmodulin dependent myosin light chain phosphorylation (in words) [3] | antagonism of arterial actin-myosin interactions (in words) [2] | Antag. of Actin-Myosin (percent inhibition of superprecipitation) ([2]; 50 μM) | IC25 (concentration producing 25% inhibition of isometric force) [4]
1 | CC1=C(C(=O)OCCOc2ccccc2)C(c2c(F)c(F)c(F)c(F)c2F)C2=C(CNCC2=O)N1 (racemic) [Example 2, 1,4,5,6,7,8-Hexahydro-2-methyl-5-oxo-4-(pentafluorophenyl)-1,7-naphthyridine-3-carboxylic acid 2-phenoxyethyl ester] | 39 mm | 72±2% | – | – | – | –
2 | COc1ccc(CCN(C)CCCC(C#N)(c2ccc(OC)c(OC)c2)C(C)C)cc1OC (centres unmarked) [Verapamil, reference compound] | – | – | unlike | unlike | – | –
3 | CC1=C(C(=O)OCCOc2ccccc2)C(c2c(F)c(F)c(F)c(F)c2F)C2=C(CNCC2=O)N1 (single isomer, unassigned; (-)) [Example 3, (-)-1,4,5,6,7,8-Hexahydro-2-methyl-5-oxo-4-(pentafluorophenyl)-1,7-naphthyridine-3-carboxylic acid 2-phenoxyethyl ester] | – | 76% | – | – | 65% | > 10 µM
4 | CCOC(=O)C1=C(C)NC(C)=C(C(=O)OC)C1c1cccc([N+](=O)[O-])c1 (centres unmarked) [nitrendipine, reference compound] | – | – | unlike | unlike | – | –
5 | CC1=C(C(=O)OCCOc2ccccc2)C(c2c(F)c(F)c(F)c(F)c2F)C2=C(CNCC2=O)N1 (single isomer, unassigned; (+)) [Example 4, (+)-1,4,5,6,7,8-Hexahydro-2-methyl-5-oxo-4-(pentafluorophenyl)-1,7-naphthyridine-3-carboxylic acid 2-phenoxyethyl ester] | – | 71% | – | – | 38% | 0.8 µM
6 | COC(=O)C1=C(C)NC(C)=C(C(=O)OC)C1c1ccccc1[N+](=O)[O-] [nifedipine, reference compound] | – | – | unlike | unlike | – | –
